One may read the inhibition as the drop in the measured response relative to a control, in per cent.

This passage reports inhibition results from US9624170B2, “4-(piperrazin-1-yl)-pyrrolidin-2-one compounds as monoacylglycerol lipase (MAGL) inhibitors” (TAKEDA PHARMACEUTICAL COMPANY LIMITED, priority 2013, dated 2017).

One assay addresses T1, human MAGL (His-hMAGL) (Homo sapiens, UniProt Q99685).
T1 construct: made in house; host or cells: Escherichia coli BL21(DE3)
T1 sequence (Q99685 1-303): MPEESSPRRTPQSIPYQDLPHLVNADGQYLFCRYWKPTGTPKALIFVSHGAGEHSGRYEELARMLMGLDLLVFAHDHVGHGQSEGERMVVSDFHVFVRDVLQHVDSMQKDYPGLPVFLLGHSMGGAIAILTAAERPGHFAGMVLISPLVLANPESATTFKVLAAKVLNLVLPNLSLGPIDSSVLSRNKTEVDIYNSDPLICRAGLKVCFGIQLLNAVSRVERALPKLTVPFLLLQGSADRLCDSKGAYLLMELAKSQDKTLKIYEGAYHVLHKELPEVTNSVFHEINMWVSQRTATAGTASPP
The assay can be described thus: Measurement of MAGL inhibitory activity by mass spectrometry. Format: biochemical. The conditions noted are these: 10 μM test compound; substrate 2-arachidonylglycerol, arachidonic acid by RapidFire-mass spectrometry. As for the experimental part:
Thereafter, to each well was added 150 μM 2-arachidonylglycerol (Tocris Bioscience) by 5 μL, and the mixture was incubated at room temperature for 10 min. Then, 2% formic acid (Wako Pure Chemical Industries, Ltd.) was added by 10 μL to discontinue the reaction. Furthermore, acetonitrile (50 μL) containing 3 μM arachidonic acid-d8 (Cayman Chemical Company) was added and the mixture was stirred. The amount of arachidonic acid in the obtained enzyme reaction mixture was calculated by measuring by RapidFire-mass spectrometry and correcting by the amount of arachidonic acid-d8. High Throughput online solid phase extraction was performed using RapidFire 300TM system (Agilent Technologies, Inc.). […] The injection needle was washed with ultrapure water (500 millisecond) and acetonitrile (500 millisecond) to minimize carry-over. […] The RapidFire300 system was controlled by RapidFire UI software version 3.6 (Agilent Technologies, Inc.). The mass spectrometry of the resultant product was performed using […] triple quadrupole mass spectrometer (AB SCIEX) equipped with an electrospray ion sauce (Turbolon SprayTM) in a negative selected reaction monitoring (SRM) mode. The conditions of SRM are shown below. The parameters of the instrument were optimized as follows: capillary temperature 600° C., ion spray voltage -4.5 kV, collision gas 8, curtain gas 15 psi, ion source gas 1 60 psi, ion source gas 2 60 psi. The mass spectrometer was controlled by AnalystTM software version 1.5.1 (AB SCIEX). The peak area integration was analyzed using RapidFire integrator software version 3.6 (Agilent Technologies, Inc.). MAGL inhibitory rate (%) was calculated according to the following calculation formula.
Consider `O=C(c1nccs1)N1CCN(C2CC(=O)N(c3cccc(NC4CCCCC4)c3)C2)CC1` (stereo not drawn) [Example 115, 1-(3-(cyclohexylamino)phenyl)-4-(4-(1,3-thiazol-2-ylcarbonyl)piperazin-1-yl)pyrrolidin-2-one], for which the inhibition at 10 µM came to 97%.

For the compound `O=C(c1ncco1)N1CCN(C2CC(=O)N(c3cccc(-c4ccccc4Cl)c3)C2)CC1` (stereo not drawn) [Example 166, 1-(2′-chlorobiphenyl-3-yl)-4-(4-(1,3-oxazol-2-ylcarbonyl)piperazin-1-yl)pyrrolidin-2-one], the inhibition at 10 µM came to 99%.

With `Cc1cccc(C#N)c1-c1cccc(N2CC(N3CCN(C(=O)c4nccs4)CC3)CC2=O)c1` (stereo not drawn) [Example 154, 6-methyl-3′-(2-oxo-4-(4-(1,3-thiazol-2-ylcarbonyl)piperazin-1-yl)pyrrolidin-1-yl)biphenyl-2-carbonitrile], the inhibition at 10 µM amounted to 101%. For `O=C(c1nccs1)N1CCN(C2CC(=O)N(c3cccc(Nc4ccc(N5CCCC5=O)cc4)c3)C2)CC1` (stereo not drawn) [Example 119, 1-(3-((4-(2-oxopyrrolidin-1-yl)phenyl)amino)phenyl)-4-(4-(1,3-thiazol-2-ylcarbonyl)piperazin-1-yl)pyrrolidin-2-one], the inhibition at 10 µM came out at 100%. The same measure, in the same setting: for `O=C(c1nccs1)N1CCN(C2CC(=O)N(c3cccc(-c4ccccc4)n3)C2)CC1` (stereo not drawn) [Example 140, 1-(6-phenylpyridin-2-yl)-4-(4-(1,3-thiazol-2-ylcarbonyl)piperazin-1-yl)pyrrolidin-2-one] the value was 100%.

Still in this assay, the particulars now being: MAGL inhibitory rate, test compound 10 μM, His-hMAGL, substrate 2-arachidonylglycerol, RapidFire-mass spectrometry.
Consider `O=C(c1nccs1)N1CCN(C2CC(=O)N(c3cccc(-c4cccc5ccoc45)c3)C2)CC1` (stereo not drawn) [Example 329, 1-(3-(1-benzofuran-7-yl)phenyl)-4-(4-(1,3-thiazol-2-ylcarbonyl)piperazin-1-yl)pyrrolidin-2-one], for which the inhibition at 10 µM was 104%.

With `Cc1cccc(-n2ccc3cc(N4CC(N5CCN(C(=O)c6nccs6)CC5)CC4=O)ccc32)c1` (stereo not drawn) [Example 251, 1-(1-(3-methylphenyl)-1H-indol-5-yl)-4-(4-(1,3-thiazol-2-ylcarbonyl)piperazin-1-yl)pyrrolidin-2-one], the inhibition at 10 µM turned out to be 102%.

Regarding `O=C(c1nccs1)N1CCN(C2CC(=O)N(c3ccc4c(c3)CCN4C(=O)CC3CC3)C2)CC1` (stereo not drawn) [Example 398, 1-(1-(cyclopropylacetyl)-2,3-dihydro-1H-indol-5-yl)-4-(4-(1,3-thiazol-2-ylcarbonyl)piperazin-1-yl)pyrrolidin-2-one], the inhibition at 10 µM amounted to 100%. Still for that read-out and setting: for `O=C(c1nccs1)N1CCN(C2CC(=O)N(c3cccc(-c4c[nH]nc4C(F)(F)F)c3)C2)CC1` (stereo not drawn) [Example 327, 4-(4-(1,3-thiazol-2-ylcarbonyl)piperazin-1-yl)-1-(3-(3-(trifluoromethyl)-1H-pyrazol-4-yl)phenyl)pyrrolidin-2-one] the value was 100%; for `O=C(c1nccs1)N1CCN(C2CC(=O)N(c3cccc(-c4cccc5ccccc45)c3)C2)CC1` (stereo not drawn) [Example 311, 1-(3-(1-naphthyl)phenyl)-4-(4-(1,3-thiazol-2-ylcarbonyl)piperazin-1-yl)pyrrolidin-2-one], 103%. On the same count and under the same terms, for `O=C(c1nccs1)N1CCN(C2CC(=O)N(c3ccc4c(c3)CCN4C(=O)CC(F)(F)F)C2)CC1` (stereo not drawn) [Example 399, 4-(4-(1,3-thiazol-2-ylcarbonyl)piperazin-1-yl)-1-(1-(3,3,3-trifluoropropanoyl)-2,3-dihydro-1H-indol-5-yl)pyrrolidin-2-one] the value was 95%; for `N#Cc1ccc(-c2ccc(N3CC(N4CCN(C(=O)c5nccs5)CC4)CC3=O)cc2)cc1` (stereo not drawn) [Example 210, 4′-(2-oxo-4-(4-(1,3-thiazol-2-ylcarbonyl)piperazin-1-yl)pyrrolidin-1-yl)biphenyl-4-carbonitrile], 91%; for `Cc1ccc(N2CC(N3CCN(C(=O)c4nccs4)CC3)CC2=O)cc1-c1ccccc1` (stereo not drawn) [Example 248, 1-(6-methylbiphenyl-3-yl)-4-(4-(1,3-thiazol-2-ylcarbonyl)piperazin-1-yl)pyrrolidin-2-one], 103%. On the same count and under the same terms, for `CC1C(N2CCN(C(=O)c3nccs3)CC2)CC(=O)N1c1ccc2c(ccn2-c2ncc(C(F)(F)F)cn2)c1` (stereo not drawn) [Example 434, 5-methyl-4-(4-(1,3-thiazol-2-ylcarbonyl)piperazin-1-yl)-1-(1-(5-(trifluoromethyl)pyrimidin-2-yl)-1H-indol-5-yl)pyrrolidin-2-one] the value was 100%; for `O=C(c1nccs1)N1CCN(C2CC(=O)N(c3cccc(-c4c(F)cccc4Cl)c3)C2)CC1` (stereo not drawn) [Example 344, 1-(2′-chloro-6′-fluorobiphenyl-3-yl)-4-(4-(1,3-thiazol-2-ylcarbonyl)piperazin-1-yl)pyrrolidin-2-one], 98%; for `O=C(c1nccs1)N1CCN(C2CN(c3ccc(Oc4ccccc4)cc3)C(=O)C2F)CC1` (stereo not drawn) [Example 261, 3-Fluoro-1-(4-phenoxyphenyl)-4-(4-(1,3-thiazol-2-ylcarbonyl)piperazin-1-yl)pyrrolidin-2-one], 100%. Consider `O=C(c1nccs1)N1CCN(C2CC(=O)N(c3ccc4c(c3)CCN4C3CC3)C2)CC1` (stereo not drawn) [Example 375, 1-(1-Cyclopropyl-2,3-dihydro-1H-indol-5-yl)-4-(4-(1,3-thiazol-2-ylcarbonyl)piperazin-1-yl)pyrrolidin-2-one], for which the inhibition at 10 µM was determined as 95%.

With `O=C(c1nccs1)N1CCN(C2CC(=O)N(c3ccc(-c4ccoc4)cc3)C2)CC1` (stereo not drawn) [Example 184, 1-(4-(3-furyl)phenyl)-4-(4-(1,3-thiazol-2-ylcarbonyl)piperazin-1-yl)pyrrolidin-2-one], the inhibition at 10 µM is 98%. In the case of `O=C(c1cscn1)N1CCN([C@@H]2CC(=O)N(c3ccc4c(c3)CCN4c3ccc(C(F)(F)F)cn3)C2)CC1` [Example 420, (4R)-4-(4-(1,3-Thiazol-4-ylcarbonyl)piperazin-1-yl)-1-(1-(5-(trifluoromethyl)pyridin-2-yl)-2,3-dihydro-1H-indol-5-yl)pyrrolidin-2-one], the inhibition at 10 µM turned out to be 89%. With `Cc1ccncc1-c1cccc(N2CC(N3CCN(C(=O)c4nccs4)CC3)CC2=O)c1` (stereo not drawn) [Example 202, 1-(3-(4-methylpyridin-3-yl)phenyl)-4-(4-(1,3-thiazol-2-ylcarbonyl)piperazin-1-yl)pyrrolidin-2-one], the inhibition at 10 µM was 102%. The same measure, in the same setting: as for `COc1cnc(N2CCc3cc(N4C[C@H](N5CCN(C(=O)c6nccs6)CC5)CC4=O)ccc32)nc1` [Example 407, (4R)-1-(1-(5-methoxypyrimidin-2-yl)-2,3-dihydro-1H-indol-5-yl)-4-(4-(1,3-thiazol-2-ylcarbonyl)piperazin-1-yl)pyrrolidin-2-one], the figure is 104%. The same measure, in the same setting: as for `O=C(c1nccs1)N1CCN(C2CC(=O)N(c3cccc(-c4c[nH]c5ncccc45)c3)C2)CC1` (stereo not drawn) [Example 337, 1-(3-(1H-pyrrolo[2,3-b]pyridin-3-yl)phenyl)-4-(4-(1,3-thiazol-2-ylcarbonyl)piperazin-1-yl)pyrrolidin-2-one], the figure is 99%. Same read-out and setting: for `O=C(c1nccs1)N1CCN(C2CC(=O)N(c3cccc(-c4cccc5[nH]ncc45)c3)C2)CC1` (stereo not drawn) [Example 318, 1-(3-(1H-indazol-4-yl)phenyl)-4-(4-(1,3-thiazol-2-ylcarbonyl)piperazin-1-yl)pyrrolidin-2-one] the value was 103%; for `O=C(c1cscn1)N1CCN([C@@H]2CC(=O)N(c3ccc4c(c3)CCN4C(=O)Cc3ccc(Cl)cc3)C2)CC1` [Example 415, (4R)-1-(1-((4-chlorophenyl)acetyl)-2,3-dihydro-1H-indol-5-yl)-4-(4-(1,3-thiazol-4-ylcarbonyl)piperazin-1-yl)pyrrolidin-2-one], 97%. Regarding `O=C(c1nccs1)N1CCN(C2CC(=O)N(c3ccc(-c4ccccc4)cc3)C2)CC1` (stereo not drawn) [Example 213, 1-(biphenyl-4-yl)-4-(4-(1,3-thiazol-2-ylcarbonyl)piperazin-1-yl)pyrrolidin-2-one], the inhibition at 10 µM is 100%. On the same count and under the same terms, for `Cc1ccnc(-n2ccc3cc(N4CC(N5CCN(C(=O)c6nccs6)CC5)CC4=O)ccc32)c1` (stereo not drawn) [Example 252, 1-(1-(4-methylpyridin-2-yl)-1H-indol-5-yl)-4-(4-(1,3-thiazol-2-ylcarbonyl)piperazin-1-yl)pyrrolidin-2-one] the value was 103%; for `O=C(c1nccs1)N1CCN(C2CC(=O)N(c3cccc(-c4cccc5ccsc45)c3)C2)CC1` (stereo not drawn) [Example 313, 1-(3-(1-benzothiophen-7-yl)phenyl)-4-(4-(1,3-thiazol-2-ylcarbonyl)piperazin-1-yl)pyrrolidin-2-one], 101%.
